From the NIST ThermoML archive (doi:10.1016/j.jct.2014.07.001)

Test: xn = mol fraction of the nth substance listed
Conditions: Drop volume

CCO [ethanol] + CCCC[n+]1ccccc1.F[B-](F)(F)F
x2 = 0
Conditions | surface tension liquid-gas [mN/m]
303.15 K | 21.49
313.15 K | 20.66
323.15 K | 19.84

CCCC[n+]1ccccc1.F[B-](F)(F)F [1-butylpyridinium tetrafluoroborate] + CO
surface tension liquid-gas [mN/m]
Conditions | 293.15 K | 303.15 K | 313.15 K | 323.15 K
x1 = 0.025 | 23.33 | 22.59 | 21.77 | 20.96
x1 = 0.0527 | 24.1 | 23.41 | 22.64 | 21.9
x1 = 0.0987 | 25.37 | 24.73 | 24.04 | 23.38
x1 = 0.1944 | 27.89 | 27.37 | 26.74 | 26.23
x1 = 0.2933 | 30.44 | 29.92 | 29.38 | 28.96
x1 = 0.3978 | 33.04 | 32.55 | 32.07 | 31.7
x1 = 0.4934 | 35.37 | 34.9 | 34.46 | 34.11
x1 = 0.5891 | 37.67 | 37.21 | 36.77 | 36.46
x1 = 0.6784 | 39.74 | 39.26 | 38.82 | 38.5
x1 = 0.7864 | 42.16 | 41.64 | 41.17 | 40.81
x1 = 0.8724 | 44.06 | 43.5 | 42.97 | 42.54
x1 = 0.93 | 45.33 | 44.76 | 44.17 | 43.69
x1 = 1 | 46.9 | 46.3 | 45.69 | 45.11

CCC[n+]1ccccc1.F[B-](F)(F)F [1-propylpyridinium tetrafluoroborate] + CO
surface tension liquid-gas [mN/m]
Conditions | 293.15 K | 303.15 K | 313.15 K | 323.15 K
x1 = 0.0478 | 23.84 | 23.07 | 22.2 | 21.35
x1 = 0.0964 | 25.01 | 24.31 | 23.48 | 22.68
x1 = 0.1993 | 27.35 | 26.84 | 26.18 | 25.55
x1 = 0.3036 | 29.78 | 29.49 | 28.99 | 28.48
x1 = 0.3934 | 32.15 | 31.84 | 31.46 | 31.02
x1 = 0.4987 | 35.23 | 34.81 | 34.46 | 34.04
x1 = 0.5926 | 38.18 | 37.63 | 37.21 | 36.76
x1 = 0.6946 | 41.44 | 40.83 | 40.29 | 39.77
x1 = 0.7836 | 44.31 | 43.66 | 43.04 | 42.45
x1 = 0.8822 | 47.5 | 46.81 | 46.15 | 45.44
x1 = 0.945 | 49.5 | 48.78 | 48.1 | 47.36
x1 = 1 | 51.29 | 50.51 | 49.79 | 49.03

CO [methanol] + CCC[n+]1ccccc1.F[B-](F)(F)F
x2 = 0
Conditions | surface tension liquid-gas [mN/m]
293.15 K | 22.6
303.15 K | 21.81
313.15 K | 20.93
323.15 K | 20.05

CCCC[n+]1cccc(C)c1.F[B-](F)(F)F [1-butyl-3-methylpyridinium tetrafluoroborate] + CCO
surface tension liquid-gas [mN/m]
Conditions | 293.15 K | 303.15 K | 313.15 K | 323.15 K
x1 = 0.0279 | 22.56 | 21.82 | 21.07 | 20.3
x1 = 0.0486 | 22.72 | 22.04 | 21.34 | 20.64
x1 = 0.0988 | 23.15 | 22.56 | 22.03 | 21.43
x1 = 0.2016 | 24.19 | 23.8 | 23.55 | 23.17
x1 = 0.2987 | 25.71 | 25.43 | 25.32 | 25.07
x1 = 0.3978 | 27.89 | 27.63 | 27.56 | 27.34
x1 = 0.5001 | 30.59 | 30.28 | 30.15 | 29.91
x1 = 0.5865 | 33.12 | 32.73 | 32.51 | 32.21
x1 = 0.6878 | 36.16 | 35.68 | 35.34 | 34.96
x1 = 0.7851 | 39.08 | 38.51 | 38.04 | 37.59
x1 = 0.887 | 42.04 | 41.38 | 40.81 | 40.3
x1 = 0.945 | 43.68 | 42.99 | 42.35 | 41.81
x1 = 1 | 45.21 | 44.48 | 43.8 | 43.24

CO [methanol] + CCCC[n+]1ccccc1.F[B-](F)(F)F
x2 = 0
Conditions | surface tension liquid-gas [mN/m]
293.15 K | 22.6
303.15 K | 21.81
313.15 K | 20.93
323.15 K | 20.05

CCCC[n+]1ccccc1.F[B-](F)(F)F [1-butylpyridinium tetrafluoroborate] + CCO
surface tension liquid-gas [mN/m]
Conditions | 303.15 K | 313.15 K | 323.15 K
x1 = 0.05 | 22.16 | 21.51 | 20.72
x1 = 0.1021 | 22.72 | 22.17 | 21.41
x1 = 0.1959 | 23.54 | 23.25 | 22.74
x1 = 0.2902 | 24.72 | 24.48 | 24.26
x1 = 0.3922 | 26.57 | 26.27 | 26.25
x1 = 0.4914 | 28.89 | 28.68 | 28.54
x1 = 0.5953 | 31.85 | 31.63 | 31.45
x1 = 0.6898 | 35.04 | 34.75 | 34.53
x1 = 0.7903 | 38.62 | 38.26 | 38.01
x1 = 0.8879 | 42.28 | 41.85 | 41.5
x1 = 0.94 | 44.15 | 43.62 | 43.24
x1 = 1 | 46.3 | 45.69 | 45.11
